Two compounds from publication PMC10252614 (International Journal of Molecular Sciences, 2023) can be followed below.

Data set [1] deals with SH-SY5Y cells. In words: glutathione levels, monochlorobimane assay. In kind it is cell-based, human. To be noted: 10 µM, 24 h. The procedure:
Next, we tested the effects of the compounds on intracellular dehydrogenase activity and glutathione levels. […] To evaluate the effects of the compounds on cells, we measured total intracellular dehydrogenase activity as a marker of cellular viability and glutathione levels for evaluation of oxidative stress (Table 6).
The glutathione (GSH) levels were measured using an optimized monochlorobimane assay. The working solutions of monochlorobimane (MCB, Merck, Rahway, NJ, USA) were prepared fresh at the time of analysis by dilution in Dulbecco’s phosphate buffer (PBS; pH 7; 1 µM, Merck, USA) and tempered at 37 °C for 30 min. After the treatment of cells with I-6e (100 µM), I-6h (100 µM), II-6e (100 µM), II-6h (10–100 µM) and III-6a (10–100 µM), 20 μL of the MCB solution was added to the cells in 96-well microplates and the measurement started immediately (final concentration of MCB in a well was 40 μmol/L) The fluorescence intensity (Ex/Em = 394/490 nm) was measured kinetically for 20 min using SPARK microplate reader (Tecan, Austria). The fluorescence was expressed as the slope of a fluorescence change over time. The GSH levels were expressed as the percentage relative to the GSH levels in control cells (control = 100%).

Data set [2] concerns SH-SY5Y cells. In words: intracellular ATP, luciferase luminescence assay. In kind it is cell-based, human. To be noted: 100 µM, 24 h. On the procedure: Thus, SH-SY5Y cells were incubated with II-6h and III-6a (10 and 100 µM) for 24 h. After the treatment, dehydrogenase activity, glutathione levels, nuclear condensation and fragmentation, and ATP levels were measured (Figure 7). […] The decrease in dehydrogenase activity was found in cells treated with 100 µM II-6h (p < 0.001).
The quantification of intracellular ATP was performed using luciferase luminescence assay. After cell treatment with II-6h and III-6a (10–100 µM), the culture medium was replaced with 100 µL of cold water for cell lysis, incubated for 5 min and centrifuged (4800× g; 5 min; 4 °C). To detect intracellular ATP concentration, 90 µL of the reaction solution was added to 10 µL of a lysate. The reaction solution included 20× reaction buffer (500 mM Tricine buffer, pH 7.8; 10 mM MgSO4, 2 mM Na2EDTA), 5 mg/mL luciferase; 10 mM D-luciferin; 0.1 M DTT and dH2O. Luminometric measurement was performed at Em = 550 nm using SPARK microplate reader (Tecan, Grödig, Austria). The intracellular ATP levels were expressed as the percentage of total ATP level relative to that in the control cells (control = 100%) as mean ± SEM.

With `C#CCN(C)c1nc(NC2CCCCC2)c2ccc(Cl)cc2n1` [II-6h, 7-chloro-N4-cyclohexyl-N2-methyl-N2-(prop-2-yn-1-yl)quinazoline-2,4-diamine], the “change in glutathione levels (in words)” value in data set [1] was “no significant changes”. Besides, in data set [2], the “intracellular ATP levels (in words)” value is “partial exhaustion of ATP”. For the compound `C#CCN(C)c1nc(N)c2cc(OC)ccc2n1` [III-6a, 6-methoxy-N2-methyl-N2-(prop-2-yn-1-yl)quinazoline-2,4-diamine], the “change in glutathione levels (in words)” value in data set [1] was “no significant changes”.
